Laboratory results published in patent US20050163841A1, “Compositions and dosage forms for enhanced absorption of 3-amino-n-butyl-phosphinic acid” (priority 2003, published 2005).
Where two headings read alike, the source gives them in different places.

Key:
[1] = Human pharmacokinetics of 3-aminopropyl-n-butyl-phosphinic acid (Gleitner 1); assay type: in vivo, Humans; conditions: implied from urinary excretion after oral administration
[2] = cited from earlier work; for dose-corrected AUC: read from FIG. 4 of Gleitner 1
[3] = test system: patients suffering from Mild Cognitive Impairment (MCI); conditions: 600 mg tid; cited from earlier work

## CCCCP(=O)(O)CCCN [3-aminopropyl-n-butyl-phosphinic acid]
[1]
  absorption through the oral route: 38%
[2]; 600 mg dose
  dose-corrected AUC: 40 μmol·h/(L·mmol)
[2]; 2100 mg dose
  dose-corrected AUC: 20 μmol·h/(L·mmol)
[2]; after food intake
  reduction of drug systemic availability after food intake: 30%
[2]; within 24 hours of i.v. administration
  cumulative urinary excretion rate: 99.5+/−6.4 % of the dose
[2]; within 24 hours of oral administration
  cumulative urinary excretion rate: 38+/−13 % of the dose
[3]
  cognition in patients with Mild Cognitive Impairment: showed improvements in multiple cognitive domains
